Laboratory results taken from patent US8163742B2, “Di-amino-substituted heterocyclic compounds and methods of use” (Amgen Inc., priority 2006, dated 2012).

System: SCF-stimulated UT-7 cells
Test: SCF stimulated UT7 proliferation/survival assay
Assay type: cell-based
Details: Homo sapiens, average value
Excerpt: SCF and GM-CSF Stimulated UT7 Proliferation/Survival Assay:
The purpose of this assay is to test the general anti-proliferative/cytotoxic effect of small molecule compounds on SCF or GM-CSF-stimulated UT-7 cells. Preventing SCF stimulated proliferation/survival is consistent with an on-mechanism effect whereas inhibition of GM-CSF driven proliferation/survival is indicative of off-target effects. UT-7 is a factor dependent human megakaryoblastic leukemia cell line that can be grown in either IL-3, GM-CSF, EPO or SCF (these cells have been confirmed to carry wild type c-kit receptor). Cells are maintained in growth media (IMDM, 10% HI-FBS, 1×PGS, 1 ng/mL GM-CSF). […] The amount of ATP is then measured as a surrogate marker for cell viability. This is accomplished by adding 50 μL of Perkin Elmer ATP 1 step reagent (as per instructed in the reagent manual, Cat. No. 6016739), incubating at RT for 15 min and reading the luminescence with a Perkin Elmer Topcount NXT™HTS (model c384) plate reader. The amount of SCF or GM-CSF stimulated viable cells in the presence of compound compared with in the presence of vehicle alone (HI control) is calculated using the formula: % control (POC)=(cpd−average LO)/(average HI−average LO)*100. […]

FC(F)(F)c1cccc(Nc2noc3c(Nc4nccc(-c5cccnc5)n4)c(Cl)ccc23)c1 [Example 1, 6-chloro-N-7-(4-(pyridin-3-yl)pyrimidin-2-yl)-N3-(3-(trifluoromethyl)phenyl)benzo[d]isoxazole-3,7-diamine]
IC50: ~44 nM
